Results from PubChem BioAssay AID2060883 (Molecular Pharmacology Branch, DTP, NCI, 2025).
Values joined by “and” are separate entries in the source; they are usually repeats but may differ in a detail not shown here. Equal values may be shown once. Values belong to the compound of their own block, whether it stands above or below them.

Test system: 843782-103-R-J1-PDC complex spheroid viability
Experiment: Anticancer human tumor 843782-103-R-J1-PDC patient-derived lung adenocarcinoma cell line growth inhibition [RAS]
Details: for viability, T/C: stronger effect = lower value
In short: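 Multi-cell-type spheroids: tumor cells plus HUVEC endothelial cells and mesenchymal stem cells. RAS-pathway inhibitors were combined with targeted agents, each dosed in half-log steps down from clinical Cmax, or from 10 microM when Cmax was unknown.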

[1] = curve of first compound, second compound 0.0316 µM
[2] = curve of first compound, second compound 0.1 µM
[3] = curve of first compound, second compound 0.316 µM
[4] = curve of first compound, second compound 1 µM
[5] = second compound 0.0316 µM, first compound 0.0316 µM
[6] = second compound 0.0316 µM, first compound 0.1 µM
[7] = second compound 0.0316 µM, first compound 0.316 µM
[8] = second compound 0.0316 µM, first compound 1 µM
[9] = second compound 0.0316 µM, first compound 3.16 µM
[10] = second compound 0.0316 µM, first compound 10 µM
[11] = second compound 0.1 µM, first compound 0.0316 µM
[12] = second compound 0.1 µM, first compound 0.1 µM
[13] = second compound 0.1 µM, first compound 0.316 µM
[14] = second compound 0.1 µM, first compound 1 µM
[15] = second compound 0.1 µM, first compound 3.16 µM
[16] = second compound 0.1 µM, first compound 10 µM
[17] = second compound 0.316 µM, first compound 0.0316 µM
[18] = second compound 0.316 µM, first compound 0.1 µM
[19] = second compound 0.316 µM, first compound 0.316 µM
[20] = second compound 0.316 µM, first compound 1 µM
[21] = second compound 0.316 µM, first compound 3.16 µM
[22] = second compound 0.316 µM, first compound 10 µM
[23] = second compound 1 µM, first compound 0.0316 µM
[24] = second compound 1 µM, first compound 0.1 µM
[25] = second compound 1 µM, first compound 0.316 µM
[26] = second compound 1 µM, first compound 1 µM
[27] = second compound 1 µM, first compound 3.16 µM
[28] = second compound 1 µM, first compound 10 µM
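Also: viability read after seven days of compound exposure.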

IC50 [1]: 237 nM | IC50 [2]: 343 nM | IC50 [3]: 283 nM | IC50 [4]: 304 nM | IC50 (curve of first compound, second compound 3.16 µM): 149 nM | IC50 (curve of first compound, second compound 10 µM): < 31.6 nM
SMILES: CC1(O)CCCC1n1c(=O)c(C(F)F)cc2cnc(NC3CCN(S(C)(=O)=O)CC3)nc21 (stereo not drawn) + C#Cc1c(F)ccc2cc(O)cc(-c3ncc4c(N5CC6CCC(C5)N6)nc(OCC56CCCN5CC(F)C6)nc4c3F)c12
viability, T/C [5]: 98.9% | viability, T/C [6]: 93.4% | viability, T/C [7]: 34.7% | viability, T/C [8]: 41.8% | viability, T/C [9]: 23.2% | viability, T/C [10]: 3.99% | viability, T/C [11]: 102% | viability, T/C [12]: 82.7% | viability, T/C [13]: 37% | viability, T/C [14]: 38.9% | viability, T/C [15]: 23.6% | viability, T/C [16]: 3.28% | viability, T/C [17]: 104% | viability, T/C [18]: 77.5% | viability, T/C [19]: 33.8% | viability, T/C [20]: 37.3% | viability, T/C [21]: 26.5% | viability, T/C [22]: 3.67% | viability, T/C [23]: 97.9% | viability, T/C [24]: 79.1% | viability, T/C [25]: 39.2% | viability, T/C [26]: 31.7% | viability, T/C [27]: 26.2% | viability, T/C [28]: 3.42% | viability, T/C (second compound 3.16 µM, first compound 0.0316 µM): 84.6% | viability, T/C (second compound 3.16 µM, first compound 0.1 µM): 56.5% | viability, T/C (second compound 3.16 µM, first compound 0.316 µM): 27.6% | viability, T/C (second compound 3.16 µM, first compound 1 µM): 33.9% | viability, T/C (second compound 3.16 µM, first compound 3.16 µM): 26% | viability, T/C (second compound 3.16 µM, first compound 10 µM): 2.68% | viability, T/C (second compound 10 µM, first compound 0.0316 µM): 52.9% | viability, T/C (second compound 10 µM, first compound 0.1 µM): 32.7% | viability, T/C (second compound 10 µM, first compound 0.316 µM): 30.9% | viability, T/C (second compound 10 µM, first compound 1 µM): 27.6% | viability, T/C (second compound 10 µM, first compound 3.16 µM): 29% | viability, T/C (second compound 10 µM, first compound 10 µM): 1.43%

IC50 (curve of first compound, second compound 0.000949 µM): 11 nM | IC50 (curve of first compound, second compound 0.003 µM): 16.6 nM | IC50 (curve of first compound, second compound 0.00949 µM): 13.1 nM | IC50 (curve of first compound, second compound 0.03 µM): 16.7 nM | IC50 (curve of first compound, second compound 0.0949 µM): 16.9 nM | IC50 (curve of first compound, second compound 0.3 µM): 14.3 nM
SMILES: Nc1ccn(C2OC(CO)C(O)C2(F)F)c(=O)n1 (stereo not drawn) + CCn1c(-c2cccnc2C(C)OC)c2c3cc(ccc31)N1CCOC(CC(NC(=O)C(C(C)C)N(C)C(=O)C3(F)CCN(C(=O)C#CC(C)(C)N(C)C)CC3)C(=O)N3CCCC(N3)C(=O)OCC(C)(C)C2)C1
viability, T/C (second compound 0.000949 µM, first compound 0.00316 µM): 70.1% | viability, T/C (second compound 0.000949 µM, first compound 0.01 µM): 52% | viability, T/C (second compound 0.000949 µM, first compound 0.0316 µM): 22.1% | viability, T/C (second compound 0.000949 µM, first compound 0.1 µM): 2.91% | viability, T/C (second compound 0.000949 µM, first compound 0.316 µM): 1.53% | viability, T/C (second compound 0.000949 µM, first compound 1 µM): 1.52% | viability, T/C (second compound 0.003 µM, first compound 0.00316 µM): 77.5% | viability, T/C (second compound 0.003 µM, first compound 0.01 µM): 72% | viability, T/C (second compound 0.003 µM, first compound 0.0316 µM): 21.7% | viability, T/C (second compound 0.003 µM, first compound 0.1 µM): 2.04% | viability, T/C (second compound 0.003 µM, first compound 0.316 µM): 1.96% | viability, T/C (second compound 0.003 µM, first compound 1 µM): 2.38% | viability, T/C (second compound 0.00949 µM, first compound 0.00316 µM): 73.3% | viability, T/C (second compound 0.00949 µM, first compound 0.01 µM): 59.4% | viability, T/C (second compound 0.00949 µM, first compound 0.0316 µM): 18.9% | viability, T/C (second compound 0.00949 µM, first compound 0.1 µM): 2.07% | viability, T/C (second compound 0.00949 µM, first compound 0.316 µM): 1.82% | viability, T/C (second compound 0.00949 µM, first compound 1 µM): 1.89% | viability, T/C (second compound 0.03 µM, first compound 0.00316 µM): 72.4% | viability, T/C (second compound 0.03 µM, first compound 0.01 µM): 74.5% | viability, T/C (second compound 0.03 µM, first compound 0.0316 µM): 21.1% | viability, T/C (second compound 0.03 µM, first compound 0.1 µM): 2.07% | viability, T/C (second compound 0.03 µM, first compound 0.316 µM): 1.99% | viability, T/C (second compound 0.03 µM, first compound 1 µM): 1.85% | viability, T/C (second compound 0.0949 µM, first compound 0.00316 µM): 85.6% | viability, T/C (second compound 0.0949 µM, first compound 0.01 µM): 69.9% | viability, T/C (second compound 0.0949 µM, first compound 0.0316 µM): 26.4% | viability, T/C (second compound 0.0949 µM, first compound 0.1 µM): 2.27% | viability, T/C (second compound 0.0949 µM, first compound 0.316 µM): 1.51% | viability, T/C (second compound 0.0949 µM, first compound 1 µM): 1.37% | viability, T/C (second compound 0.3 µM, first compound 0.00316 µM): 70.4% | viability, T/C (second compound 0.3 µM, first compound 0.01 µM): 62.7% | viability, T/C (second compound 0.3 µM, first compound 0.0316 µM): 21.8% | viability, T/C (second compound 0.3 µM, first compound 0.1 µM): 2.7% | viability, T/C (second compound 0.3 µM, first compound 0.316 µM): 1.81% | viability, T/C (second compound 0.3 µM, first compound 1 µM): 1.46%

IC50 (curve of first compound, second compound 0.00316 µM): > 10000 nM | IC50 (curve of first compound, second compound 0.01 µM): > 10000 nM | IC50 [1]: > 10000 nM | IC50 [2]: > 10000 nM | IC50 [3]: > 10000 nM | IC50 [4]: > 10000 nM
SMILES: C[C@@H](NC(=O)c1ncnc(N)c1Cl)c1ncc(C(=O)Nc2cc(C(F)(F)F)c(Cl)cn2)s1 + C=CC(=O)N1CCN(c2nc(OCC3CCCN3C)nc3c(F)c(-c4nc(N)cc(C)c4C(F)(F)F)c(Cl)cc23)C(C)C1
viability, T/C (second compound 0.00316 µM, first compound 0.0316 µM): 92.2% | viability, T/C (second compound 0.00316 µM, first compound 0.1 µM): 84.3% | viability, T/C (second compound 0.00316 µM, first compound 0.316 µM): 92.1% | viability, T/C (second compound 0.00316 µM, first compound 1 µM): 91.4% | viability, T/C (second compound 0.00316 µM, first compound 3.16 µM): 106% | viability, T/C (second compound 0.00316 µM, first compound 10 µM): 84.9% | viability, T/C (second compound 0.01 µM, first compound 0.0316 µM): 85.2% | viability, T/C (second compound 0.01 µM, first compound 0.1 µM): 84.2% | viability, T/C (second compound 0.01 µM, first compound 0.316 µM): 88.4% | viability, T/C (second compound 0.01 µM, first compound 1 µM): 88.5% | viability, T/C (second compound 0.01 µM, first compound 3.16 µM): 91.9% | viability, T/C (second compound 0.01 µM, first compound 10 µM): 91.8% | viability, T/C [5]: 87.5% | viability, T/C [6]: 79.8% | viability, T/C [7]: 87% | viability, T/C [8]: 84.9% | viability, T/C [9]: 94.5% | viability, T/C [10]: 89.1% | viability, T/C [11]: 90.7% | viability, T/C [12]: 83.7% | viability, T/C [13]: 87.3% | viability, T/C [14]: 90.8% | viability, T/C [15]: 91.5% | viability, T/C [16]: 88.7% | viability, T/C [17]: 88.5% | viability, T/C [18]: 87.9% | viability, T/C [19]: 90.4% | viability, T/C [20]: 86.6% | viability, T/C [21]: 95.7% | viability, T/C [22]: 91.8% | viability, T/C [23]: 82.7% | viability, T/C [24]: 92.2% | viability, T/C [25]: 97% | viability, T/C [26]: 85.3% | viability, T/C [27]: 92.5% | viability, T/C [28]: 87.3%

IC50 (curve of compound): > 1000 nM
SMILES: C=CC(=O)Nc1cc(Nc2nccc(-c3cn(C)c4ccccc34)n2)c(OC)cc1N(C)CCN(C)C
viability, T/C (compound 0.00316 µM): 101% [middle of 4 runs] | viability, T/C (compound 0.01 µM): 99.7% [middle of 4 runs] | viability, T/C (compound 0.0316 µM): 95.9% [middle of 4 runs] | viability, T/C (compound 0.1 µM): 102% (2×) and 84% and 95.2% | viability, T/C (compound 0.316 µM): 91.4% [middle of 4 runs] | viability, T/C (compound 1 µM): 68% [middle of 4 runs]
